Laboratory results from BindingDB's records for doi:10.1021/acs.jmedchem.7b01449 (University of Antwerp, 2018).

Columns and labels:
[1] = Inhibition of RIPK1 in mouse L929sA cells transfected with human Fas assessed as inhibition in TNF-induced necroptosis pretreated for 24 hrs followed by TNF and zVAD.fmk addition measured after 3 hrs by Hoechst 33342/propidium iodide staining-based assay
[2] = as above; remark: listed apart in the source
[3] = Inhibition of RIPK1 in mouse L929sA cells transfected with human Fas assessed as inhibition in TNF-induced necroptosis pretreated for 0.5 hrs followed by TNF and zVAD.fmk addition measured after 3 hrs by Hoechst 33342/propidium iodide staining-based assay
[4] = molecular target: T1, Receptor-interacting serine/threonine-protein kinase 1 (Mus musculus, UniProt Q60855); test: (§1) Inhibition of RIPK1 in mouse L929sA cells transfected with human Fas assessed as inhibition in TNF-induced necroptosis pretreated for 24 hrs followed by TNF and zVAD.fmk addition measured after 3 hrs by Hoechst 33342/propidium iodide staining-based assay
T1 sequence (Q60855 whole entry): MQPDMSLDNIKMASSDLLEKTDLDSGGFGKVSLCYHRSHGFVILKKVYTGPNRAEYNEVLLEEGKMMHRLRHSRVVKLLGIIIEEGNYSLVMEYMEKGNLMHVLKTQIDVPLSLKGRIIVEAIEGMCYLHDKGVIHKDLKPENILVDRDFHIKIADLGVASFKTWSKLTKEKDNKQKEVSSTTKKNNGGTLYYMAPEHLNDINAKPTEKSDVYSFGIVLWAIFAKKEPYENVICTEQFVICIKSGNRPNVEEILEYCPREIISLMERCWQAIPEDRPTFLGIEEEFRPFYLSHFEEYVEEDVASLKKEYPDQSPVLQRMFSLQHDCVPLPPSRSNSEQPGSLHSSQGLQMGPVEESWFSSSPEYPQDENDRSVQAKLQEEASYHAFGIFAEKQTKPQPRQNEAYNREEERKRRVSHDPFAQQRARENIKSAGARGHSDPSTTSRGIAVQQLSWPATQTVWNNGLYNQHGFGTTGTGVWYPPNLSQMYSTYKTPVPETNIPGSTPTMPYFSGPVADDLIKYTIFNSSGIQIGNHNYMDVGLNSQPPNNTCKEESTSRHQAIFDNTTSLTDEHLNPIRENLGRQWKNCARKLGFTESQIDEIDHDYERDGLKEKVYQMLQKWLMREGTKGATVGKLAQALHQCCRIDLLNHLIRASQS

[5] = Inhibition of RIPK1 in mouse L929sA cells transfected with human Fas assessed as inhibition in TNF-induced necroptosis pretreated for 0.5 hrs followed by TNF and zVAD.fmk addition measured after 3 hrs by Hoechst 33342/propidium iodide staining-based assay; remark: listed apart in the source
[6] = molecular target: T1, Receptor-interacting serine/threonine-protein kinase 1; test: ChEBML_1697666
Text: as §1

| Structure (SMILES) | IC50 [1] | IC50 [3] | also measured |
| --- | --- | --- | --- |
| Cc1[nH]nc(Nc2nc(Sc3ccc(NC(=O)C4CC4)cc3)nc(N3CCOCC3)n2)c1C | > 3000 nM |  |  |
| Cc1[nH]nc(Nc2cc(N3CCCCC3)nc(Nc3ccc(NC(=O)C4CCCCC4)cc3)n2)c1C |  | > 3000 nM | IC50 [2]: > 3000 nM |
| Cc1cc(Nc2nc(Sc3ccc(NC(=O)C4CCCCC4)cc3)nc(N3CCN(C)CC3)n2)n[nH]1 |  | > 3000 nM | IC50 [2]: > 3000 nM |
| CCN1CCN(c2cc(Nc3n[nH]c(C)c3C)nc(Sc3ccc(NC(=O)C4CC4)cc3)n2)CC1 | > 3000 nM | > 3000 nM |  |
| Cc1cc(Nc2nc(Nc3ccc(NC(=O)C4CC4)cc3)nc(N3CCN(C)CC3)n2)n[nH]1 | > 3000 nM | > 3000 nM |  |
| Cc1[nH]nc(Nc2cc(N3CCOCC3)nc(Nc3ccc(NC(=O)C4CCCCC4)cc3)n2)c1C | > 3000 nM | > 3000 nM |  |
| Cc1cc(Nc2cc(N3CCCCC3)nc(Nc3ccc(NC(=O)C4CC4)cc3)n2)n[nH]1 | 680 nM | 530 nM |  |
| Cc1cc(Nc2nc(Sc3ccc(NC(=O)C4CC4)cc3)nc(N3CCN(C)CC3)n2)n[nH]1 | 1140 nM | > 3000 nM |  |
| Cc1[nH]nc(Nc2nc(Sc3ccc(NC(=O)C4CCCCC4)cc3)nc(N3CCOCC3)n2)c1C |  |  | IC50 [2]: > 3000 nM |
| Cc1cc(Nc2cc(N3CCN(C)CC3)nc(Sc3ccc(NC(=O)C4CCCCC4)cc3)n2)n[nH]1 |  |  | IC50 [4]: > 3000 nM |
| Cc1cc(Nc2cc(N3CCN(C)CC3)nc(Nc3ccc(NC(=O)C4CCCCC4)cc3)n2)n[nH]1 | 1750 nM | 910 nM |  |
| Cc1cc(Nc2nc(Nc3ccc(NC(=O)C4CCCCC4)cc3)nc(N3CCOCC3)n2)n[nH]1 |  | > 3000 nM | IC50 [2]: > 3000 nM |
| Cc1[nH]nc(Nc2nc(Sc3ccc(NC(=O)C4CC4)cc3)nc(N3CCCCC3)n2)c1C | > 3000 nM |  |  |
| Cc1cc(Nc2cc(N3CCCCC3)nc(Sc3ccc(NC(=O)C4CC4)cc3)n2)n[nH]1 | 1740 nM |  |  |
| Cc1cc(Nc2nc(Nc3ccc(NC(=O)C4CCCCC4)cc3)nc(N3CCN(C)CC3)n2)n[nH]1 | > 3000 nM |  |  |
| Cc1[nH]nc(Nc2cc(N3CCN(C)CC3)nc(Nc3ccc(NC(=O)C4CC4)cc3)n2)c1C | > 3000 nM | > 3000 nM |  |
| Cc1cc(Nc2nc(Nc3ccc(NC(=O)C4CC4)cc3)nc(N3CCOCC3)n2)n[nH]1 | 2640 nM |  | IC50 [5]: 1060 nM |
| Cc1[nH]nc(Nc2nc(Sc3ccc(NC(=O)C4CC4)cc3)nc(N3CCN(C)CC3)n2)c1C | > 3000 nM |  |  |
| Cc1[nH]nc(Nc2nc(Nc3ccc(NC(=O)C4CC4)cc3)nc(N3CCCCC3)n2)c1C |  | > 3000 nM | IC50 [2]: > 3000 nM |
| Cc1[nH]nc(Nc2nc(Nc3ccc(NC(=O)C4CCCCC4)cc3)nc(N3CCN(C)CC3)n2)c1C |  |  | IC50 [4]: > 3000 nM |
| Cc1cc(Nc2cc(N3CCOCC3)nc(Sc3ccc(NC(=O)C4CCCCC4)cc3)n2)n[nH]1 |  | 380 nM | IC50 [2]: 360 nM |
| Cc1[nH]nc(Nc2nc(Sc3ccc(NC(=O)C4CCCCC4)cc3)nc(N3CCCCC3)n2)c1C |  |  | IC50 [4]: > 3000 nM |

| Structure (SMILES) | IC50 [1] | IC50 [3] | also measured |
| --- | --- | --- | --- |
| Cc1[nH]nc(Nc2nc(Nc3ccc(NC(=O)C4CC4)cc3)nc(N3CCN(C)CC3)n2)c1C |  | > 3000 nM | IC50 [2]: > 3000 nM |
| Cc1cc(Nc2nc(Nc3ccc(NC(=O)C4CC4)cc3)nc(N3CCCCC3)n2)n[nH]1 |  |  | IC50 [6]: > 3000 nM |
| Cc1[nH]nc(Nc2nc(Sc3ccc(NC(=O)C4CCCCC4)cc3)nc(N3CCN(C)CC3)n2)c1C |  |  | IC50 [4]: > 3000 nM |
| Cc1cc(Nc2cc(N3CCCCC3)nc(Nc3ccc(NC(=O)C4CCCCC4)cc3)n2)n[nH]1 | 1940 nM |  | IC50 [6]: > 3000 nM |
| Cc1cc(Nc2cc(N3CCOCC3)nc(Nc3ccc(NC(=O)C4CCCCC4)cc3)n2)n[nH]1 | 1500 nM | 640 nM |  |
| Cc1cc(Nc2nc(Nc3ccc(NC(=O)C4CCCCC4)cc3)nc(N3CCCCC3)n2)n[nH]1 | > 3000 nM | > 3000 nM |  |
| Cc1[nH]nc(Nc2nc(Nc3ccc(NC(=O)C4CCCCC4)cc3)nc(N3CCOCC3)n2)c1C |  |  | IC50 [4]: > 3000 nM |
| Cc1cc(Nc2nc(Sc3ccc(NC(=O)C4CC4)cc3)nc(N3CCCCC3)n2)n[nH]1 | > 3000 nM | > 3000 nM |  |
| Cc1[nH]nc(Nc2cc(N3CCCCC3)nc(Nc3ccc(NC(=O)C4CC4)cc3)n2)c1C |  |  | IC50 [4]: > 3000 nM |
| Cc1[nH]nc(Nc2cc(N3CCN(C)CC3)nc(Nc3ccc(NC(=O)C4CCCCC4)cc3)n2)c1C |  |  | IC50 [2]: > 3000 nM |
| Cc1[nH]nc(Nc2nc(Nc3ccc(NC(=O)C4CC4)cc3)nc(N3CCOCC3)n2)c1C |  | > 3000 nM | IC50 [2]: > 3000 nM |
| Cc1[nH]nc(Nc2nc(Nc3ccc(NC(=O)C4CCCCC4)cc3)nc(N3CCCCC3)n2)c1C |  |  | IC50 [4]: > 3000 nM |
| Cc1[nH]nc(Nc2cc(N3CCCCC3)nc(Sc3ccc(NC(=O)C4CCCCC4)cc3)n2)c1C | > 3000 nM |  |  |
| Cc1[nH]nc(Nc2cc(N3CCN(C)CC3)nc(Sc3ccc(NC(=O)C4CCCCC4)cc3)n2)c1C | > 3000 nM | > 3000 nM |  |
| Cc1cc(Nc2nc(Sc3ccc(NC(=O)C4CCCCC4)cc3)nc(N3CCCCC3)n2)n[nH]1 | > 3000 nM | > 3000 nM |  |
| Cc1cc(Nc2cc(N3CCN(C)CC3)nc(Nc3ccc(NC(=O)C4CC4)cc3)n2)n[nH]1 | 640 nM |  | IC50 [5]: 1040 nM |
| Cc1[nH]nc(Nc2cc(N3CCOCC3)nc(Nc3ccc(NC(=O)C4CC4)cc3)n2)c1C | > 3000 nM | > 3000 nM |  |
| Cc1cc(Nc2nc(Sc3ccc(NC(=O)C4CC4)cc3)nc(N3CCOCC3)n2)n[nH]1 | 1450 nM |  | IC50 [5]: 700 nM |
| Cc1cc(Nc2cc(N3CCCCC3)nc(Sc3ccc(NC(=O)C4CCCCC4)cc3)n2)n[nH]1 | 5040 nM | 1750 nM |  |
| Cc1cc(Nc2nc(Sc3ccc(NC(=O)C4CCCCC4)cc3)nc(N3CCOCC3)n2)n[nH]1 |  | > 3000 nM | IC50 [2]: 1630 nM |
| Cc1[nH]nc(Nc2cc(N3CCOCC3)nc(Sc3ccc(NC(=O)C4CCCCC4)cc3)n2)c1C |  | > 3000 nM | IC50 [2]: > 3000 nM |
| Cc1cc(Nc2cc(N3CCOCC3)nc(Sc3ccc(NC(=O)C4CC4)cc3)n2)n[nH]1 | 810 nM | 390 nM |  |
